Data taken from US9429574B2, “Cancer therapies and methods” (priority 2011, dated 2016).
“Also recorded” adds a separate entry of the source.

Assays:
Assay type in all cases: cell-based, human
[1] = tested on: eIF2alpha phosphorylation; test: Western blot of eIF2alpha phosphorylation upon thapsigargin ER stress induction; conditions: three hour TG exposure
Protocol: Cells were harvested at 50-70% confluency, pelleted by centrifugation, and dissolved in RIPA buffer (10 mM Tris/HCl (pH 7.5), 1 mM EDTA, 1% Triton X-100, 0.1% SDS, 0.1% sodium deoxycholate, 100 mM NaCl) supplemented with protease inhibitors (2 mM PMSF and 1× Complete Mini, Roche). Supernatants were collected, protein concentrations were determined using the BCA assay (Pierce/Thermo Scientific), and proteins were separated in a 10% SDS-polyacrylamide gel. Western blotting followed standard protocols using nitrocellulose membranes (Amersham/GE Healthcare). Signal intensities were analyzed with ImageJ (http://rsb.info.nih.gov/ij/).
Antibodies used were: anti-BAF47 (SMARCB1/SNF5; BD Biosciences, San Diego, Calif.), anti-phospho-eIF2alpha (119A11; Cell Signaling), anti-beta actin-HRP (Abcam, Cambridge, UK).
The CHLA-02-ATRT cell line was obtained from ATCC and kept in neurosphere medium (DMEM/F12 (1:1) with Glutamax, B27, penicillin (100 units/mL), streptomycin (100 μg/mL; all from Invitrogen), HEPES (10 mmol/L), Partricin (0.5 μg/mL, Biochrom); insulin (20 μg/mL; Sigma Aldrich), recombinant human epidermal growth factor (EGF; 20 ng/mL), and rhFGFbasic (20 ng/mL; PAN Biotech)). The human malignant rhabdoid tumor cell line LM (provided by Rupert Handgretinger, Tuebingen, Germany) was kept according to Versteege et al. (Nature 1998). DAOY medulloblastoma cells (provided by Michael Grotzer, Zurich, Switzerland) were kept in EMEM (PAA) supplemented with 10% FBS (Biochrom), 2 mM glutamine, 100 units/mL Penicillin/Streptomycin (Invitrogen), and 2.5 μg/mL Amphotericin B (PAA). Hs683 glioma cell lines (provided by Matthias Simon, Bonn, Germany) were kept in DAOY medium with 1 mM sodium pyruvate, MEM non-essential amino acids, and MEM vitamin solution (all from Invitrogen). SW1783 glioblastoma cells (provided by Matthias Simon, Bonn, Germany) and BT12 AT/RT cells (provided by Michael Grotzer, Zurich, Switzerland) were kept in DMEM (1 g/l glucose) supplemented with 10% FBS (Biochrom), 2 mM glutamine, 100 units/ml Penicillin/Streptomycin (Invitrogen) and 2.5 μg/ml Amphotericin B (PAA).
MCF7-SNF5-KD#73 cells (Xu et al., 2010) were cultured in DMEM (4.5 g/L glucose, Invitrogen), 10% FBS (Tet System Approved, Clontech), 2 mM glutamine, and 100 units/mL Penicillin/Streptomycin (Invitrogen). For the knock-down of SMARCB1, tetracycline (1 μg/mL) was added on day 1 and 3, and cells harvested at day 4. At day 4, cells were treated with DTT (5 mM) or Thapsigargin (5 μM). 786-O and A-498 cells (both from Angelika Toelle, Charité Berlin, Germany), HepG2 cells (from Peter Nilsson-Ehle, Lund University, Sweden), and G401 (ATCC) were kept in RPMI1640 (PAA) supplemented with 10% FBS (Biochrom), 2 mM glutamine, 100 units/mL Penicillin/Streptomycin (Invitrogen), and 2.5 μg/mL Amphotericin B (PAA). A-204 (ATCC) were grown in McCoy's 5a modified medium supplemented with 10% FBS (Biochrom), 100 units/mL Penicillin/Streptomycin (Invitrogen), and 2.5 μg/mL Amphotericin B (PAA). All cells were kept in T75 tissue culture flasks (Techno Plastic Products).

G401 cells = test: Apoptosis assay (Annexin V/7AAD flow cytometry) in kidney MRT cell line; conditions: G401 vs DMSO and vs SMARCB1-positive cell lines
Protocol: (§1) Similarly, G401, A498, 786-O, BT12, SW1783, and DAOY cells were plated into 6-well-plates (200,000 cells per well) and grown for 24 hours before 10 nM BTZ, 30 nM Carfilzomib (CFZ, from Active Biochemicals Co.), or DMSO as vehicle control was added to the cell culture media for another 24 hours. Subsequently, cells were carefully washed with PBS and dissociated by trypsinization. Aliquots of single cell suspensions containing 1×10^5 cells in 100 μL PBS were stained with AnnexinV-APC and 7AAD according to the manufacturer's instructions (BD Biosciences) for 15 min at RT. Subsequently, 400 μL of AnnexinV binding buffer was added (10 mM Hepes, 140 mM NaCl and 2.5 mM CaCl2), cell suspensions were placed on ice and immediately analyzed with a FACSCalibur flow cytometer (BD Biosciences). The data analysis was performed using the FlowJo software (Tree Star). For statistical analyses, an unpaired t-test was conducted using Prism 5.0 (GraphPad).

BT12 cells = test: Apoptosis assay (Annexin V/7AAD flow cytometry) in brain AT/RT cell line; conditions: BT12 vs DMSO and vs SMARCB1-positive cell lines
Protocol: as §1

MCF7-SNF5-KD#73 cells = test: Apoptosis assay (Annexin V/7AAD flow cytometry) in tetracycline-induced SMARCB1 knock-down MCF7 cells; conditions: 10 nM for 12 hours; Tet-induced SMARCB1 knock-down vs non-induced MCF7 cells
Protocol: 500,000 MCF7-SNF5-KD#73 cells (Xu et al., 2010) were plated into T75 tissue culture flasks (Techno Plastic Products). For knockdown experiments, tetracycline (1 μg/mL) was added on day 1 and day 3. In case of Bortezomib (BTZ)-treated cells, the drug (Santa Cruz Biotechnology, final concentration 10 nM) was added for 12 hours on day 4 (at 70-85% confluency).
as §1

[2] = 10 nM BTZ for 24 hours, listed as BTZ

In the case of `C/C=C(/C)C(=O)O[C@H]1C(C)=C2[C@H]([C@@H]1OC(=O)CCCCCCC)[C@@](C)(OC(C)=O)C[C@H](OC(=O)CCC)[C@@]1(O)[C@H]2OC(=O)[C@@]1(C)O` [TG, Thapsigargin], the “Fold-change of β-actin-normalized phosphorylated eIF2alpha signal intensities between TSG-treated and untreated cells” value ([1]; 786-O (SMARCB1-positive renal cell carcinoma)) is reported as 0.60, the “Fold-change of β-actin-normalized phosphorylated eIF2alpha signal intensities between TSG-treated and untreated cells” value ([1]; A-204 (MRT, muscle origin, lacking SMARCB1)) is reported as 1.39 and the “Fold-change of β-actin-normalized phosphorylated eIF2alpha signal intensities between TSG-treated and untreated cells” value ([1]; A-498 (SMARCB1-positive renal cell carcinoma)) is reported as 1.12. For the same compound, the “Fold-change of β-actin-normalized phosphorylated eIF2alpha signal intensities between TSG-treated and untreated cells” value ([1]; CHLA2 (AT/RT, lacking SMARCB1)) was 5.89, the “Fold-change of β-actin-normalized phosphorylated eIF2alpha signal intensities between TSG-treated and untreated cells” value ([1]; DAOY (SMARCB1-positive brain tumor)) was 0.77 and the “Fold-change of β-actin-normalized phosphorylated eIF2alpha signal intensities between TSG-treated and untreated cells” value ([1]; G401 (MRT, kidney origin, lacking SMARCB1)) was 2.49. For the same compound, the “Fold-change of β-actin-normalized phosphorylated eIF2alpha signal intensities between TSG-treated and untreated cells” value ([1]; HepG2 (SMARCB1-positive hepatocellular carcinoma)) was 0.56, the “Fold-change of β-actin-normalized phosphorylated eIF2alpha signal intensities between TSG-treated and untreated cells” value ([1]; Hs683 (SMARCB1-positive brain tumor)) was 0.81 and the “Fold-change of β-actin-normalized phosphorylated eIF2alpha signal intensities between TSG-treated and untreated cells” value ([1]; LM (MRT, liver origin, lacking SMARCB1)) was 1.27. For the same compound, the “Fold-change of β-actin-normalized phosphorylated eIF2alpha signal intensities between TSG-treated and untreated cells” value ([1]; SW1783 (SMARCB1-positive brain tumor)) was 0.75.
`CC(C)C[C@H](NC(=O)[C@H](CCc1ccccc1)NC(=O)CN1CCOCC1)C(=O)N[C@@H](Cc1ccccc1)C(=O)N[C@@H](CC(C)C)C(=O)[C@@]1(C)CO1` [Carfilzomib] was tested, and the “Apoptosis (Annexin V-positive and 7AAD-negative cells)” value (“Apoptosis” for short) (G401 cells; 30 nM CFZ for 24 hours) was “highest apoptosis; also recorded: increased apoptosis” and the “Apoptosis” value (BT12 cells; 30 nM CFZ for 24 hours) was “highest apoptosis; also recorded: increased apoptosis”.
With `CC(C)C[C@H](NC(=O)[C@H](Cc1ccccc1)NC(=O)c1cnccn1)B(O)O` [Bortezomib, [(1R)-3-methyl-1-({(2S)-3-phenyl-2-[(pyrazin-2-ylcarbonyl)-amino]propanoyl}amino)butyl]boronic acid] the “Apoptosis” value (MCF7-SNF5-KD#73 cells) was “increased apoptosis”, the “Apoptosis” value (G401 cells; 10 nM BTZ for 24 hours) was “increased apoptosis” and the “Apoptosis” value (G401 cells; [2]) was “highest apoptosis”. The “Apoptosis” value (BT12 cells; 10 nM BTZ for 24 hours) was “increased apoptosis” and the “Apoptosis” value (BT12 cells; [2]) was “highest apoptosis”.
